For three compounds, IC50 and inhibition in vivo results are on record in US9518038B2, “Condensation product of theanine derivative and carboxylic acid coumarin derivative, its intermediate, preparation method and use thereof” (SHANDONG YINGDONG YINGHAO BIOTECHNOLOGY, INC., priority 2012, dated 2016).

For test [1], the system named is human colon cancer cells HT29. As to the kind of experiment: MTT growth inhibition, HT29 cells. It is filed as cell-based. The note with it: HT-29, 72 h after treatment, read-out: Drug concentration (IC50) at which 50% cancer cells survived.
Test [2] has as its system Cyclin D1. Nature of the test: Western Blotting, Cyclin D1 level. It is filed as cell-based. Particulars: human liver cancer cells, Lewis lung cancer cells and other cancer cell lines and tumor tissues, read-out: Effective concentration (IC50) for inhibition of Cyclin D1. The source says: (§1) Antibodies: primary antibodies of VEGFR, EGFR, c-Met, K-Ras, H-Ras, Akt, NF-κB, Cyclin D1, ER-alpha, Dvl-1, Dvl-2, Dvl-3, MMP-9, MMP2, β-catenin, Bcl-2, Bax, p53, p21, E-cadherin and Caspase3 protein, purchased from American Cell Signaling Technology Company and Santa Cruz Technology Company; and H3 acetylation, H4 acetylation and HDAC (HDAC3, HDAC4 and the like) Antibody Sample Kits, purchased from Cell Signaling Technology Company of the U.S.
(§2) (3) polyacrylamide gel electrophoresis (SDS-PAGE): an equal amount of protein lysate sample was used to separate protein, film transfer, and blocking, treated with appropriate primary antibodies and secondary antibodies in sequence, and the film was washed, then the color was developed with ECL kit, and a blot protein band was detected by exposure of an X-ray film; and a Gel-Pro Analyzer was used for quantitative analysis of gray degree, optical density value of the control group and the drug treatment group in various concentration were respectively compared with that of internal reference, the obtained ratios were respectively compared with the control group, and the protein expression level was semi-quantified.
(In general: Immunoblotting shows a protein as a band on a membrane.)

Test [3] deals with human breast cancer cells MCF-7 xenograft. Nature of the test: In-vivo growth of MCF-7 xenografts in nude mice. More on the design: species or system BALB/c nude mice. The note with it: Mus musculus, MCF7, ip, vs DMSO solvent control, read-out: Curative effect (inhibition rate %) of tumor weight; for inhibition in vivo at 60 mg/kg: 60 mg/kg intraperitoneal once a day; for inhibition in vivo at 90 mg/kg: 90 mg/kg intraperitoneal once a day. The method, then: (§3) RPMI1640 and DMEM culture solutions: Hyclone Company; inactivated fetal bovine serum: Hyclone Company, preserved at −20° C.; trypsin: Amersco Company; and 0.4% trypan blue: Sigma Company;
(§4) (3) Observation of growth of tumors in nude mice: the activities (including food intake, traits of urine and stool, mental state and the like) of the nude mice and the tumor growth time and growth situation of the transplanted tumors were observed every day, the body weight and the size of the tumors were measured once every 2-3 days. The long diameter a and the short diameter b (mm) of each tumor were measured by a vernier caliper to calculate the volume, wherein the volume V=π1/2·ab^2 (mm^3);
(§5) (4) sacrifice of animals: the mice were anesthetized and photoed after treatment experiments; the nude mice were sacrificed by breaking neck, the tumor tissues were stripped under sterile conditions and the weight of the tumors was weighed; and the effects of the drugs on pathology and toxicity of the various organs and tissues were detected.

For test [4], the system named is human gastric cancer cells BGC-823. Nature of the test: MTT growth inhibition, BGC-823 cells. The class given is cell-based. Particulars: 72 h after treatment, read-out: Drug concentration (IC50) at which 50% cancer cells survived.
The test system of test [5] is Caski human cervical cancer cells. As to the kind of experiment: MTT growth inhibition, Caski cells. It is filed as cell-based. Particulars: Ca-Ski, 72 h after treatment, read-out: Drug concentration (IC50) at which 50% cancer cells survived.
For test [6], the system named is human lymphoma cells U937. Nature of the test: MTT growth inhibition, U937 cells. The class given is cell-based. Particulars: Homo sapiens, U-937, 72 h after treatment, read-out: Drug concentration (IC50) at which 50% cancer cells survived. The essentials: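 At 48 h and 72 h after dosing, MTT was added for 4 h in serum-free DMEM, formazan was dissolved in DMSO and absorbance read at 570 nm. Relative survival was calculated against untreated cell control, and IC50 derived by regression from three repeat experiments.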

Test [7] has as its system human lung cancer cells A549 xenograft. As to the kind of experiment: In-vivo growth of A549 xenografts in nude mice. More on the design: species or system BALB/c nude mice. Particulars: Mus musculus, ip, vs DMSO solvent control, read-out: Curative effect (inhibition rate %) of tumor weight; for inhibition in vivo at 60 mg/kg: 60 mg/kg intraperitoneal once a day; for inhibition in vivo at 90 mg/kg: 90 mg/kg intraperitoneal once a day. How it is done: as §3, §4, §5

In test [8] the test system is Bcl-2/Bax. Nature of the test: Western Blotting, Bcl-2/Bax level. The class given is cell-based. Particulars: human liver cancer cells, Lewis lung cancer cells and other cancer cell lines and tumor tissues, read-out: Effective concentration (IC50) for inhibition of Bcl-2/Bax.
Description: as §1, §2

For test [9], the system named is human lung cancer cells H460. As to the kind of experiment: MTT growth inhibition, H460 cells. It is filed as cell-based. Particulars: NCI-H460, 72 h after treatment, read-out: Drug concentration (IC50) at which 50% cancer cells survived.
Test [10] concerns human breast cancer cells MCF-7. Nature of the test: MTT growth inhibition, MCF-7 cells. It is filed as cell-based. The note with it: MCF7, 72 h after treatment, read-out: Drug concentration (IC50) at which 50% cancer cells survived.
In test [11] the test system is human brain tumor cells Daoy. Nature of the test: MTT growth inhibition, Daoy cells. The class given is cell-based. The note with it: Homo sapiens, 72 h after treatment, read-out: Drug concentration (IC50) at which 50% cancer cells survived.

For `CCNC(=O)CCC(NC(=O)c1cc2cc([N+](=O)[O-])ccc2oc1=O)C(=O)OCC` (stereo in doubt) [Compound If, (R)-2-(6-nitro-2-oxo-2H-benzopyran-3-carboxamido)-5-ethylamino-5-oxo-pentanoic acid ethyl ester], the IC50 in [1] was 153 µM; in [2], below 90 µM; in test [4], 115 µM; in test [5], 120 µM; in [6], 121 µM; in test [8] it was below 90 µM. In addition, the results for the IC50 in [9], in test [10] and in [11] were 100 µM, 112 µM and 129 µM, respectively. For the same compound, the inhibition in vivo at 60 mg/kg came to 68.6% in test [3] and 58.6% in test [7]. Further, the inhibition in vivo at 90 mg/kg in test [3] came to 72.6%; in [7] it was 64.6%.

Consider `CCNC(=O)CCC(NC(=O)c1cc2ccccc2oc1=O)C(=O)OC` (stereo not drawn) [Compound Ia, methyl 5-ethylamino-5-oxo-2-(2-oxo-2H-benzopyran-3-carboxamido)pentanoate], for which the IC50 in test [1] was 62 µM; in test [2] it was below 125 µM; in test [4], 123 µM; in test [5] it was 210 µM; in [6] it was 56 ± 10 µM; in [8] it was below 125 µM. The IC50 amounted to 230 µM in test [9], 220 µM in [10] and 250 µM in [11]. Besides, the inhibition in vivo at 60 mg/kg stood at 50.1% in [3] and 48.6% in [7]. Moreover, the figures for the inhibition in vivo at 90 mg/kg in [3] and in test [7] were 61.3% and 51.6%, respectively.

For `CCNC(=O)CC[C@@H](NC(=O)c1cc2cc(Br)ccc2oc1=O)C(=O)OCC` [Compound Id, (R)-2-(6-Br-2-oxo-2H-benzopyran-3-carboxamido)-5-ethylamino-5-oxo-pentanoic acid ethyl ester], the IC50 in [1] was 45 µM; in [2], below 100 µM; in test [4], 65 µM; in test [5], 101 µM; in [6], 124 µM; in test [8] it was below 100 µM. The IC50 is 101 µM in test [9], 102 µM in [10] and 128 µM in test [11]. Also, the inhibition in vivo at 60 mg/kg in [3] is 56.6%; in [7], 63.6%. Besides, the inhibition in vivo at 90 mg/kg in test [3] is 66.9%; in test [7], 69.6%.
